Patent US8663669B2, “Pesticide treatment of soils or substrates with sulphur compounds” (Arkema France, priority 2002, dated 2014)

Columns and labels:
[1] = test system: young cucumber plants (9 cm, 2 leaves, ARIS hybrid); test: Phytotoxicity on young cucumber plants; assay type: in vivo
Protocol: For both types of crop, 4 treatments were performed on 20 plants: • untreated control • 360 kg/ha of DMDS • 540 kg/ha of DMDS • 720 kg/ha of DMDS
Five days after the treatment, the young plants are transplanted into pots 20 cm in diameter and 35 cm in height.
The observations relating to the number of leaves per plant and the visual state of the plants are carried out 15 and 41 days after the transplantation: […]

[2] = test system: larvae of Meloidogyne arenaria; test: Nematicidal in vitro test on second-stage juvenile larvae; assay type: in vivo; settings: for Immobility rate after 48 h: 24 h in solution then 24 h in pure water; for Immobility rate after 24 h: aqueous solution
Protocol: The second-stage juvenile larvae (the free and infesting stage) are immersed for 24 hours in the test solution and then the number of larvae paralysed are counted before transferring them into pure water for another 24 hours. At the end of the 48 hours which have thus elapsed, the larvae paralysed are again counted and the larvae truly dead are counted the next day.
The breeding of the nematodes was carried out on tomato plants. The tests were carried out with, aqueous solutions of DMDS at 0.0001%, 0.1%, 1% and 5% by mass, of DPDS at 1%, 5% and 10% by mass, and of allicin at 0.0003%, 0.0015% and 0.003% by mass, compared with a control consisting of pure water, and repeated five times. The ovicidal activity was also evaluated according to the same modalities, by counting the number of hatchings after 5 to 20 days following exposure to the products.

CSSC [DMDS, dimethyl disulphide]
Visual symptom of phytotoxicity ([1]; 360, 540, 720 kg/ha, 15 and 41 days after transplantation): no visual symptom of phytotoxicity
Average number of leaves per plant ([1]; 360 kg/ha DMDS (formulation A), after 15 days): 5.3
Average number of leaves per plant ([1]; 360 kg/ha DMDS (formulation A), after 41 days): 9.8
Average number of leaves per plant ([1]; 540 kg/ha DMDS (formulation A), after 15 days): 5.7
Average number of leaves per plant ([1]; 540 kg/ha DMDS (formulation A), after 41 days): 9.7
Average number of leaves per plant ([1]; 720 kg/ha DMDS (formulation A), after 15 days): 5.7
Average number of leaves per plant ([1]; 720 kg/ha DMDS (formulation A), after 41 days): 9.9
Difference in number of leaves between untreated control and treated plants ([1]; regardless of the concentration tested (360-720 kg/ha)): no significant difference
Mortality rate after 72 h ([2]; concentration by mass 1 %): 80%
Immobility rate after 48 h ([2]; concentration by mass 1 %): 84%
Immobility rate after 24 h ([2]; concentration by mass 1 %): 72%
Mortality rate after 72 h ([2]; concentration by mass 5 %): 98%
Immobility rate after 48 h ([2]; concentration by mass 5 %): 98%
Immobility rate after 24 h ([2]; concentration by mass 5 %): 97%
Nematostatic and nematicidal activity ([2]; concentration of greater than or equal to 1%): high nematostatic and nematicidal activity
Nematicidal activity ([2]; concentration of less than 1%): no nematicidal activity
Nematostatic activity ([2]; concentration of less than 1%): very weak nematostatic activity
